Values joined by “and” are separate entries in the source; they are usually repeats but may differ in a detail not shown here. Equal entries are not always repeated. Where two headings read alike, the source gives them in different places.
Legend:
[1] = Pharmacokinetic study: plasma kinetics after oral administration of free or encapsulated εVin; format: in vivo, rats; conditions: for occurrence of metabolites after oral administration: rats, both administration forms, data not shown; for k el: read-out: Lambda z (converted); for MRT: read-out: MRT (mean residence time) (converted); for half-life: read-out: T½; for AUC0-t: 0-4 h
Procedure: (§1) Experiments were conducted in accordance with Directive 2010/63/EU [51] and approved by the Bordeaux University Institutional Ethics Committee for Animal Research (IEC-AR CEEA 50, MESR approval A18380). Male Wistar rats (Janvier-LABS, Saint Berthevin, France) were maintained in controlled conditions: 12 h light/12 h dark cycle, humidity 50–60% and an ambient temperature of 24 ± 1 °C (animal facility agreement number: B33-063-917). Free access to food and water was allowed up to 16 h before experiments started. Rats were randomly divided into two groups. Group A (n = 5, average weight = 307.8 ± 7.7 g) received εVin dissolved in propylene glycol (5.25 mg/mL), while group B (n = 6, average weight = 308 ± 10.7 g) received the same dose of εVin but encapsulated in MLLs and suspended in ultra-pure water. Both solutions were administrated by oral gavage and precisely measured to reach a dose of 20 mg/kg bw of εVin. Blood was collected through the tail vein, making a slanting incision during the first collection. Rats were slightly anesthetized by isoflurane before every blood sample collection (600 µL) at the following time points: 20, 40, 60, 100, 140, 180 and 210 min after gavage. They were sacrificed at 240 min by a high dose of isoflurane and rapid exsanguination with saline solution injected in the right ventricular cardiac cavity with a peristaltic pump (10 mL/min). All blood samples were collected in heparinized tubes and centrifuged (10,000× g, 10 min) before sampling plasma. The liver, kidneys and four white adipose tissues (epididymal, retroperitoneal, mesenteric and subcutaneous) were removed, weighed and immediately immersed in liquid nitrogen. All blood and tissues samples were kept at −80 °C until analysis.
(§2) Extractions were performed as previously described with some modifications to improve quantification. For plasma extraction, 360 µL of methanol (4 °C) were added to an aliquot of 120 µL of plasma. The sample was vortexed during three minutes before centrifugation (30 min, 12,000× g, 4 °C). The supernatant (380 µL) was removed and evaporated using a SpeedVac concentrator (Labconco CentriVap, Thermo Fisher Scientific, Waltham, MA, USA). Residue was kept in −80 °C before analysis. For tissues extraction, tissues (about 0.5 g) were first cut with scalpels before being mixed with 4 mL of methanol:water (80:20, v:v). Samples were homogenized with an Ultra-Turrax homogenizer (IKA, Staufen, Deutschland) before being intensely vortexed. Then, samples were centrifuged 20 min at 10,000× g and 4 °C before sampling 3 mL of supernatant. All supernatants were evaporated using a SpeedVac concentrator and kept at −80 °C. Residues were reconstituted in 60 µL and 250 µL of methanol:water (50:50, v:v) or plasma and tissue, respectively. They were vortexed intensely and centrifuged at 12,000× g during 30 min at 4 °C before being injected the supernatant in LC-HRMS.
(§3) The quantification of εVin and the total of glucuronides (εVG) in plasma and tissues was performed as previously described with some modifications concerning the mass parameters. The U-HPLC separation was carried out with a Vanquish Flex system (Thermo Fisher Scientific, Les Ulis, France) consisting in a binary pump, an autosampler and a heated column compartment. The liquid chromatography separation was performed as previously detailed using C18 column (BEH C18 2.1 mm × 100 mm, 1.7 µm particle size, Waters, Guyancourt, France). The flow rate was set as 450 µL/min. The injection volume was 5 µL and the eluents were 0.1% formic acid in water for A and 0.1% formic acid in acetonitrile for B. The eluent B varied as follows: 0 min, 25%; 0.5 min, 25%; 3.6 min, 50%; 3.9 min, 50%; 4 min, 100%; 5.7 min, 100%; 5.8 min, 25%; 7 min, 25%. The column and sample temperature were 30 °C and 20 °C, respectively. The Exactive benchtrop Orbitrap mass spectrometer equipped with a HESI probe (both from Thermo Fisher Scientific, Bremen, Germany) was used. […]

[2] = parameters: method as in PMID 27175336; conditions: rats, oral 70 mg/kg bw, after hydrolysis with glucuronidase; cited from earlier work
[3] = Quantification in plasma, liver, kidneys and white adipose tissues 4 h after oral administration; format: in vivo; conditions: rats, 4 h after oral 20 mg/kg bw εVin
Procedure: as §1, §2, §3

[4] = Literature pharmacokinetics of εVin after oral administration in mice (Kim et al.); format: in vivo; conditions: oral 40 mg/kg bw (ref 31) versus 20 mg/kg bw in this study
[5] = parameters: method as in PMID 27902942; conditions: mice, oral 40 mg/kg bw; cited from earlier work
[6] = parameters: method as in PMID 30400351; conditions: rats, intraperitoneal injection, cited from earlier work; for Cmax: metabolites expressed as equivalent of the native form
[7] = male, Wistar, rat, plasma, po, 20 mg/kg, rat plasma, oral 20 mg/kg bw εVin, encapsulated form (MLLs)
[8] = male, Wistar, rat, plasma, po, 20 mg/kg, rat plasma, oral 20 mg/kg bw εVin, free form
[9] = rat plasma, oral 20 mg/kg bw εVin, encapsulated form (MLLs)
[10] = rat plasma, oral 20 mg/kg bw εVin, free form
[11] = rat plasma, oral 20 mg/kg bw εVin, free form, 20 mg/kg

For `O=C(O)C1OC(Oc2ccc(C3Oc4cc(O)cc(C=Cc5ccc(O)cc5)c4C3c3cc(O)cc(O)c3)cc2)C(O)C(O)C1O` (stereo not drawn) [V1G], the “occurrence of metabolites after oral administration” value (shortened to “occurrence of metabolites”) [1] was “traces”.

For `O=C(O)[C@H]1O[C@@H](Oc2cc(/C=C/c3ccc(O)cc3)c3c(c2)O[C@H](c2ccc(O)cc2)[C@H]3c2cc(O)cc(O)c2)[C@H](O)[C@@H](O)[C@@H]1O` [V2G], the “occurrence of metabolites” value [1] was “largely in majority”.

In the case of `O=C(O)C1OC(Oc2ccc(C=Cc3cc(O)cc4c3C(c3cc(O)cc(O)c3)C(c3ccc(O)cc3)O4)cc2)C(O)C(O)C1O` (stereo not drawn) [V4G], the “occurrence of metabolites” value [1] is reported as “traces”.

In the case of `Oc1ccc([C@H]2Oc3ccc(/C=C/c4cc(O)cc(O)c4)cc3[C@@H]2c2cc(O)cc(O)c2)cc1` [δ-viniferin], the “concentration of glucuronide metabolites relative to the native form” value [2] is given as “up to 7 fold”.

With `Oc1ccc(/C=C/c2cc(O)cc3c2[C@@H](c2cc(O)cc(O)c2)[C@H](c2ccc(O)cc2)O3)cc1` [εVin, Trans-ε-viniferin] the concentration in kidneys ([3]; free form) was ≤ 10 pmol/g of tissue, the concentration in liver ([3]; free form) was ≤ 10 pmol/g of tissue and the “concentration in mesenteric adipose tissue” value ([3]; free form) was 92 ± 84 pmol/g of tissue. The “concentration in subcutaneous adipose tissue” value ([3]; free form) was 23 ± 12 pmol/g of tissue, the “concentration in the three other adipose depots (epididymal, retroperitoneal, subcutaneous)” value ([3]; free form) was “around 20 pmol/g of tissue” and the Cmax [1, 7] was 11.7 ± 7.3 nM. For the same compound, the k el [1, 7] was 0.000137 s⁻¹, the MRT [1, 7] was 3.27 h and the Tmax ([1]; male, Wistar, rat, plasma, po, 20 mg/kg, rat plasma, oral 20 mg/kg bw εVin, encapsulated form (MLLs), read-out: Tmax (converted)) was 0.333 h. The half-life [1, 7] was 1.91 ± 1.34 h, the Cmax [1, 8] was 15 ± 11 nM and the k el [1, 8] was 0.000345 s⁻¹. The MRT [1, 8] was 2.12 h, the Tmax ([1]; male, Wistar, rat, plasma, po, 20 mg/kg, rat plasma, oral 20 mg/kg bw εVin, free form, read-out: Tmax (converted)) was 1 h and the half-life [1, 8] was 0.917 ± 0.565 h. For the same compound, the “AUC0–∞” value [1, 9] was 1660.1 ± 1313.1 pmol/mL/min, the AUC0-t [1, 9] was 1009.8 ± 328.3 pmol/mL/min and the “AUC0–∞” value [1, 10] was 1919.7 ± 955.2 pmol/mL/min. The AUC0-t [1, 10] was 1689.1 ± 682.0 pmol/mL/min, the Cmax [1, 11] was 15.3 ± 10.5 nM and the “AUC0-∞ of the literature study relative to the values of this study” value [4] was 3.6 times. The bioavailability [5] was 0.77%, the “maximal concentration (Cmax)” value [5] was 42 ng/mL and the Cmax [6] was 3090 ng/mL.

With Trans-ε-viniferin-glucuronide [εVG] the concentration in kidneys ([3]; encapsulated form) was 114 ± 12 pmol/g of tissue, the concentration in liver ([3]; encapsulated form) was 1206 ± 304 pmol/g of tissue and the “concentration in mesenteric adipose tissue” value ([3]; encapsulated form) was 213 ± 81 pmol/g of tissue. For the same compound, the “concentration in plasma at 4 h” value ([3]; encapsulated form) was 700 ± 175 nM, the concentration in kidneys ([3]; free form) was 76 ± 39 pmol/g of tissue and the “concentration in kidneys relative to the native molecule” value ([3]; free form) was 14 times. For the same compound, the concentration in liver ([3]; free form) was 604 ± 320 pmol/g of tissue, the “concentration in liver relative to the native molecule” value ([3]; free form) was 60 times and the “concentration in mesenteric adipose tissue” value ([3]; free form) was 108 ± 75 pmol/g of tissue. The “concentration in plasma at 4 h” value ([3]; free form) was 317 ± 186 nM, the “concentration in subcutaneous adipose tissue” value ([3]; free form) was 105 ± 83 pmol/g of tissue and the “increase of T1/2 by the encapsulation procedure” value ([1]; rat plasma, encapsulated versus free form, p < 0.05) was roughly 3 times. For the same compound, the “AUC0–∞” value [1, 9] was 432,315.4 ± 106,406.4 pmol/mL/min, the Cmax [1, 9] was 1750 ± 876 nM and the Lambda z [1, 9] was 0.0074 ± 0.0036 * min^−1. The Tmax [1, 9] was 1.67 h, the AUC0-t [1, 9] was 307,086.4 ± 316,383.9 pmol/mL/min and the T½ ([1]; rat plasma, oral 20 mg/kg bw εVin, encapsulated form (MLLs), 20 mg/kg) was 1.98 ± 1.08 h. For the same compound, the “AUC0–∞” value [1, 10] was 264,191.0 ± 123,786.4 pmol/mL/min, the Cmax [1, 10] was 1670 ± 1100 nM and the Lambda z [1, 10] was 0.0198 ± 0.0056 min⁻¹. For the same compound, the “MRT (mean residence time)” value [1, 10] was 2.062 ± 0.2 h, the Tmax [1, 10] was 1.67 h and the AUC0-t [1, 10] was 245,827.3 ± 114,219.8 pmol/mL/min. The T½ [1, 11] was 0.633 ± 0.183 h and 0.637 ± 0.187 h, the “maximal plasma concentration of glucuronides relative to the aglycone (native) form” value ([1]; rat plasma, oral 20 mg/kg bw εVin, free form, listed as glucuronide forms, 20 mg/kg) was “more than 100 times” and the “maximal plasma concentration of glucuronides relative to the aglycone (native) form” value ([1]; rat plasma, oral 20 mg/kg bw εVin, free form, listed as total glucuronides, 20 mg/kg) was 108 times. The Cmax [6] was 5160 ng/mL and the Tmax [6] was 1 h.
